Data published in ChEMBL document CHEMBL5726207, “Substituted N,2-diarylquinoline-4-carboxamides and the use thereof as anti-inflammatory agents” (2019).
Several values for one entry are separate records, joined by “and”; a condition that tells them apart may be missing. Equal values may be shown once.

Target: Prostaglandin F2-alpha receptor (Homo sapiens, UniProt P43088)
Test: 470 nm/em. 525 nm in a fluorescence measuring instrument (FLIPR Tetra, MolecularDevices) for 120 seconds.
Format: cell-based

Prostaglandin F2-alpha receptor, sequence (P43088 whole entry): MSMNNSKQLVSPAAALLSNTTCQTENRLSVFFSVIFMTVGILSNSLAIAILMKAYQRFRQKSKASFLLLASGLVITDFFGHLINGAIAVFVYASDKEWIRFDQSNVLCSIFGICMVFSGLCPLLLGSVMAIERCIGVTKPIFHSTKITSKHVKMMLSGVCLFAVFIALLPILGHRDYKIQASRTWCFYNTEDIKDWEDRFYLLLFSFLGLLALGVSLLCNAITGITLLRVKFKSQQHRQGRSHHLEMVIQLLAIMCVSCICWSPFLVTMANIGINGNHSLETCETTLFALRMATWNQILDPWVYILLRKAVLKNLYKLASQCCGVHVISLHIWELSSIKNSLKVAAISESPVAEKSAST

Cc1c(-c2ccccc2)nc2ccc(Br)cc2c1C(=O)Nc1ccc(C(=O)O)cc1F
IC50: 0.053 µM and 0.047 µM
